Test results from patent US20240391936A1, “TETRAHYDROTHIENO PYRIDINE DERIVATIVES AS DDRS INHIBITORS” (CHIESI FARMACEUTICI S.P.A., priority 2021, published 2024).
Where two headings read alike, the source gives them in different places.

How the values were obtained:
[1] = biological target: T1, DDR1 (Homo sapiens, UniProt Q08345); test: DDR1 binding assay (LanthaScreen Europium Kinase Binding assay); set-up: purchased Carna Biosciences
Description: (§1) DDR1 and DDR2 binding assays were performed using Life Technologies LanthaScreen™ Europium Kinase Binding assay. The compounds were incubated with 5 nM DDR1 (Carna Biosciences) or 5 nM DDR2 (Life Technologies) for 1 hour at room temperature in white 384-well OptiPlate (PerkinElmer), containing 20 nM or 10 nM Kinase Tracer 178 respectively and 2 nM Europium labelled anti-GST antibody (Life Technologies) in assay buffer (50 mM HEPES pH 7.5, 10 mM MgCl2, 1 mM EGTA and 0.01% BRIJ35).
(§2) The ratio of fluorescence emission 665 nm/615 nm after excitation at 340 nm was obtained using the Tecan Spark 20M plate reader. IC50 values were determined in GraphPad Prism 7.0 software, using 4 parameter model: log(inhibitor) vs. response. IC50 values were converted in Ki using the Cheng-Prusoff equation

[2] = biological target: T2, DDR2 (Homo sapiens, UniProt Q16832); test: DDR2 binding assay (LanthaScreen Europium Kinase Binding assay); set-up: purchased Life Technologies
T2 sequence (Q16832 22-855): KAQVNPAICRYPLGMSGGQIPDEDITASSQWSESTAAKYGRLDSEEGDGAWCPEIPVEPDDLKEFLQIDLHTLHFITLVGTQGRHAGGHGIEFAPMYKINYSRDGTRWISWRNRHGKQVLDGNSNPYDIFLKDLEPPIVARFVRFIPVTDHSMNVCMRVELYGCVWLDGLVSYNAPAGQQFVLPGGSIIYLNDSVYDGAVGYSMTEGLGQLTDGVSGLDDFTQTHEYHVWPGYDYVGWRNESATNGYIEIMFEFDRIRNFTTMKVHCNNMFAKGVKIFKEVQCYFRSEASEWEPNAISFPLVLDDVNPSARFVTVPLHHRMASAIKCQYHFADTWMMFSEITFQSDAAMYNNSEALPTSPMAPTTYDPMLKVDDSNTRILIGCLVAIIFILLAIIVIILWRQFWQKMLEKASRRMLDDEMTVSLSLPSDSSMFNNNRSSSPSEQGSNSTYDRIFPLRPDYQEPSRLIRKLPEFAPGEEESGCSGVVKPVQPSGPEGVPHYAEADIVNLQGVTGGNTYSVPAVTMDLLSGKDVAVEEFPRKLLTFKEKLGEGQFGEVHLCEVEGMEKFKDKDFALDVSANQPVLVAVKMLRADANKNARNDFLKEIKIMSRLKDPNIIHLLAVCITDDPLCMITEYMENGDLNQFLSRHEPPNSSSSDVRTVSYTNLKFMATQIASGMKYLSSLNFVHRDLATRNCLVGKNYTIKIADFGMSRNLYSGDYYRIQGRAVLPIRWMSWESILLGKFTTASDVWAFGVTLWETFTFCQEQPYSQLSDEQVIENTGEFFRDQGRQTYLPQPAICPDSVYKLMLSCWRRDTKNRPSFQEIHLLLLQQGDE
Description: as §1, §2

[3] = biological target: T1, DDR1; test: DDR1 cell based assay (PathHunter U2OS DDR1 assay); set-up: host or cells: U2OS-DDR1 (PathHunter); conditions: U2OS-DDR1 cells, bovine Type II Collagen 20 μg/ml
Description: The inhibition of DDR1 receptor activation by compounds was evaluated by PathHunter® U2OS DDR1 assay (Eurofins DiscoverX), according to the manufacturer's instructions. Briefly, U2OS-DDR1 cells were seeded in white 384-well plates at a density of 5000 cells/well and incubated for 2 hours at 37° C. and 5% CO2. Cells were then treated with compounds at different concentrations and incubated for 30 minutes, before stimulation with bovine Type II Collagen 20 μg/ml and incubation overnight at 37° C. and 5% CO2. PathHunter Detection Reagents were prepared according to the protocol provided by DiscoverX and 20 μl/well of this mix were added to each well. After incubating the plates for 1 hour at room temperature in the dark, luminescence signal was acquired with a plate reader. Raw data were normalized to vehicle control (0% for normalization) and positive control (100% for normalization; cells treated with 20 μg/ml collagen II) and IC50 parameters were calculated in GraphPad Prism 8.0 software, using sigmoidal dose-response curve fitting with variable slope.

[4] = binding assay, 5 nM DDR1, 20 nM Kinase Tracer 178, Ki from IC50 by Cheng-Prusoff, read-out: Ki DDR1
[5] = binding assay, 5 nM DDR2, 10 nM Kinase Tracer 178, Ki from IC50 by Cheng-Prusoff, read-out: Ki DDR2
[6] = 5 nM DDR1, 20 nM Kinase Tracer 178, 1 hour at room temperature, IC50 converted in Ki using the Cheng-Prusoff equation, read-out: DDR1 Ki
[7] = 5 nM DDR2, 10 nM Kinase Tracer 178, 1 hour at room temperature, IC50 converted in Ki using the Cheng-Prusoff equation, read-out: DDR2 Ki

T1 sequence (Q08345 19-913): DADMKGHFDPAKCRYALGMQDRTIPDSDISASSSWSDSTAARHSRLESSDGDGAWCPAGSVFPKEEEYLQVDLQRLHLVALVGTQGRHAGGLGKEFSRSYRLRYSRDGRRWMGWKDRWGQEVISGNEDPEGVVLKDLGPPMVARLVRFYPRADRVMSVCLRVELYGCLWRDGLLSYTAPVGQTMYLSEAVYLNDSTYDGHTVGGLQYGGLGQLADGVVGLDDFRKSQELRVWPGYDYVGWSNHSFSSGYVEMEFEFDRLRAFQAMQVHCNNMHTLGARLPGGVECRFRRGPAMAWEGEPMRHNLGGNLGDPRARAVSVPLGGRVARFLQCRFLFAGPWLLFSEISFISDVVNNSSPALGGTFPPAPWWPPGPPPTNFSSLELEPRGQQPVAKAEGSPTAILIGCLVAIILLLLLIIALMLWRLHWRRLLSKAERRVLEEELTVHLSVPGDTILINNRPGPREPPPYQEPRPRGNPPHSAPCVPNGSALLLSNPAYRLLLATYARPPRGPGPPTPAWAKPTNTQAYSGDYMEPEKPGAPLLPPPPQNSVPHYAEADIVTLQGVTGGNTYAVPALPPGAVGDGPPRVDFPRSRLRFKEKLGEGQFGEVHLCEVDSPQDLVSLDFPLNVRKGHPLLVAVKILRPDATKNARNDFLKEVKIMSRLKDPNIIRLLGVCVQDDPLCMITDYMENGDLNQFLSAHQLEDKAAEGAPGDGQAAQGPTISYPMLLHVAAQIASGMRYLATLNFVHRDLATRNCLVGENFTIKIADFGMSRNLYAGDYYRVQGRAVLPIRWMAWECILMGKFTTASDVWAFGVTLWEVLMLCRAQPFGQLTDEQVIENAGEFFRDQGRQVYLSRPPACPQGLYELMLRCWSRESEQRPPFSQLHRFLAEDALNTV

SMILES | Ki [1, 4] [µM] | Ki [2, 5] [µM] | IC50 [3] [µM] | Ki [1, 6] [µM] | Ki [2, 7] [µM]
O=C(Nc1cc(CN2CCCC2)cc(C(F)(F)F)c1)c1csc2c1CCN(C(=O)c1cnc3ccccn13)C2 [Example 11] | < 0.025 | < 0.025 | < 0.025 | – | –
O=C(Nc1ccc(OC2COC2)c(C(F)(F)F)c1)c1csc2c1CCN(C(=O)c1cnc3ccccn13)C2 [Example 13, 6-(imidazo[1,2-a]pyridine-3-carbonyl)-N-(4-(oxetan-3-yloxy)-3-(trifluoromethyl)phenyl)-4,5,6,7-tetrahydrothieno[2,3-c]pyridine-3-carboxamide] | < 0.025 | < 0.025 | < 0.025 | – | –
O=C(Nc1ccc(OCC2COC2)c(C(F)(F)F)c1)c1csc2c1CCN(C(=O)c1cnc3ccccn13)C2 [Example 14, 6-(imidazo[1,2-a]pyridine-3-carbonyl)-N-(4-(oxetan-3-ylmethoxy)-3-(trifluoromethyl)phenyl)-4,5,6,7-tetrahydrothieno[2,3-c]pyridine-3-carboxamide] | < 0.025 | < 0.025 | < 0.025 | – | –
COCCOc1ccc(NC(=O)c2csc3c2CCN(C(=O)c2cnc4ccccn24)C3)cc1C(F)(F)F [Example 15, 6-(imidazo[1,2-a]pyridine-3-carbonyl)-N-(4-(2-methoxyethoxy)-3-(trifluoromethyl)phenyl)-4,5,6,7-tetrahydrothieno[2,3-c]pyridine-3-carboxamide] | < 0.025 | < 0.025 | 0.025 to 0.05 | – | –
O=C(Nc1ccc(OCCO)c(C(F)(F)F)c1)c1csc2c1CCN(C(=O)c1cnc3ccccn13)C2 [Example 16, N-(4-(2-hydroxyethoxy)-3-(trifluoromethyl)phenyl)-6-(imidazo[1,2-a]pyridine-3-carbonyl)-4,5,6,7-tetrahydrothieno[2,3-c]pyridine-3-carboxamide] | < 0.025 | < 0.025 | < 0.025 | – | –
O=C(Nc1ccnc(C(F)(F)F)c1)c1csc2c1CCN(C(=O)c1cnc3ccccn13)C2 [Example 17, 6-(imidazo[1,2-a]pyridine-3-carbonyl)-N-(2-(trifluoromethyl)pyridin-4-yl)-4,5,6,7-tetrahydrothieno[2,3-c]pyridine-3-carboxamide] | < 0.025 | < 0.025 | 0.025 to 0.05 | – | –
CN1CCN(Cc2ccc(NC(=O)c3csc4c3CCN(C(=O)c3cnc5ccccn35)C4)cc2C(F)(F)F)CC1 [Example 18, 6-(imidazo[1,2-a]pyridine-3-carbonyl)-N-(4-((4-methylpiperazin-1-yl)methyl)-3-(trifluoromethyl)phenyl)-4,5,6,7-tetrahydrothieno[2,3-c]pyridine-3-carboxamide] | < 0.025 | < 0.025 | 0.05 to 0.08 | – | –
CN(C)Cc1cc(NC(=O)c2csc3c2CCN(C(=O)c2cnc4ccccn24)C3)cc(C(F)(F)F)c1 [Example 19, N-(3-((dimethylamino)methyl)-5-(trifluoromethyl)phenyl)-6-(imidazo[1,2-a]pyridine-3-carbonyl)-4,5,6,7-tetrahydrothieno[2,3-c]pyridine-3-carboxamide] | < 0.025 | < 0.025 | < 0.025 | – | –
O=C(Nc1cc(C(F)(F)F)ncn1)c1csc2c1CCN(C(=O)c1cnc3ccccn13)C2 [Example 21, 6-(imidazo[1,2-a]pyridine-3-carbonyl)-N-(6-(trifluoromethyl)pyrimidin-4-yl)-4,5,6,7-tetrahydrothieno[2,3-c]pyridine-3-carboxamide] | < 0.025 | < 0.025 | 0.025 to 0.05 | – | –
CN1CCN(Cc2cc(NC(=O)c3cc4c(s3)CN(C(=O)c3cnc5ccccn35)CC4)cc(C(F)(F)F)c2)CC1 [Example C1, 6-(imidazo[1,2-a]pyridine-3-carbonyl)-N-(3-((4-methylpiperazin-1-yl)methyl)-5-(trifluoromethyl)phenyl)-4,5,6,7-tetrahydrothieno[2,3-c]pyridine-2-carboxamide] | – | – | – | 0.312 | 0.531
CN1CCN(Cc2cc(NC(=O)c3cc4c(s3)CCN(C(=O)c3cnc5ccccn35)C4)cc(C(F)(F)F)c2)CC1 [Example C2, 5-(imidazo[1,2-a]pyridine-3-carbonyl)-N-(3-((4-methylpiperazin-1-yl)methyl)-5-(trifluoromethyl)phenyl)-4,5,6,7-tetrahydrothieno[3,2-c]pyridine-2-carboxamide] | – | – | – | 0.195 | 0.16

Next, values leading:

Ki [1, 4] [µM] | Ki [2, 5] [µM] | IC50 [3] [µM] | Ki [1, 6] [µM] | Ki [2, 7] [µM] | SMILES
< 0.025 | < 0.025 | 0.05 to 0.08 | – | – | CC1Cc2c(C(=O)Nc3cccc(C(F)(F)F)c3)csc2CN1Cc1cnc2cnccn12 (single isomer, unassigned) [Example 105, 6-(imidazo[1,2-a]pyrazin-3-ylmethyl)-5-methyl-N-(3-(trifluoromethyl)phenyl)-4,5,6,7-tetrahydrothieno[2,3-c]pyridine-3-carboxamide]
< 0.025 | < 0.025 | < 0.025 | – | – | CC1c2scc(C(=O)Nc3cccc(C(F)(F)F)c3)c2CCN1Cc1cnc2[nH]ccc2c1 (single isomer, unassigned) [Example 107, 6-((1H-pyrrolo[2,3-b]pyridin-5-yl)methyl)-7-methyl-N-(3-(trifluoromethyl)phenyl)-4,5,6,7-tetrahydrothieno[2,3-c]pyridine-3-carboxamide]
< 0.025 | < 0.025 | 0.025 to 0.05 | – | – | Cc1ccc(-n2nc(C(C)(C)C)cc2NC(=O)c2csc3c2CCN(C(=O)c2cnc4ccccn24)C3)cc1 [Example 2, N-(3-(tert-butyl)-1-(p-tolyl)-1H-pyrazol-5-yl)-6-(imidazo[1,2-a]pyridine-3-carbonyl)-4,5,6,7-tetrahydrothieno[2,3-c]pyridine-3-carboxamide]
< 0.025 | < 0.025 | 0.025 to 0.05 | – | – | CC(C)(C)c1cc(NC(=O)c2csc3c2CCN(C(=O)c2cnc4ccccn24)C3)n(-c2ccc(F)cc2)n1 [Example 5, N-(3-(tert-butyl)-1-(4-fluorophenyl)-1H-pyrazol-5-yl)-6-(imidazo[1,2-a]pyridine-3-carbonyl)-4,5,6,7-tetrahydrothieno[2,3-c]pyridine-3-carboxamide]
< 0.025 | < 0.025 | 0.025 to 0.05 | – | – | CC(C)(C)c1cc(NC(=O)c2csc3c2CCN(C(=O)c2cnc4ccccn24)C3)n(-c2ccccc2)n1 [Example 6, N-(3-(tert-butyl)-1-phenyl-1H-pyrazol-5-yl)-6-(imidazo[1,2-a]pyridine-3-carbonyl)-4,5,6,7-tetrahydrothieno[2,3-c]pyridine-3-carboxamide]
< 0.025 | < 0.025 | < 0.025 | – | – | O=C(Nc1cc(F)cc(OC(F)(F)F)c1)c1csc2c1CCN(C(=O)c1cnc3ccccn13)C2 [Example 10, N-(3-fluoro-5-(trifluoromethoxy)phenyl)-6-(imidazo[1,2-a]pyridine-3-carbonyl)-4,5,6,7-tetrahydrothieno[2,3-c]pyridine-3-carboxamide]
